The assay relates to BDF1 mice, s.c. Lewis lung carcinoma, T/C %. The assay can be described thus: NCI In Vivo Anticancer Drug Screen. Data for tumor model Lewis Lung Carcinoma (subcutaneous) in B6D2F1 (BDF1) mice. The method, then: The antitumor activity of compounds was measured in mice bearing transplantable tumors. Survival or tumor size were measured and the results are expressed as the measurement made in the treated group (T) divided by the measurement made in the vehicle treated control group (C). The tumor model used in this assay is Lewis Lung Carcinoma (subcutaneous) in B6D2F1 (BDF1) mice

[1] abbreviates: endpoint: median survival time, dose: 1.0 mg/kg/injection, schedule: Q01DX009 (ip), vehicle: Klucel (hydroxypropylcellulose) (HPC), higher = longer survival.
Setting [2] is: endpoint: median survival time, dose: 2.0 mg/kg/injection, schedule: Q01DX009 (ip), vehicle: Klucel (hydroxypropylcellulose) (HPC), higher = longer survival.

Values joined by “and” are separate entries in the source; they are usually repeats but may differ in a detail not shown here. Equal entries are not always repeated. Results filed as inconclusive are left out.

Regarding `COc1cc2c(c(OC)c1OC)-c1ccc(OC)c(=O)cc1[C@@H](NC(C)=O)CC2`, the T/C (endpoint: mean tumor weight, dose: 0.06 mg/kg/injection, schedule: Q01DX011 (ip), vehicle: saline, higher = larger tumour) is 65 % of control; the T/C (endpoint: mean tumor weight, dose: 0.12 mg/kg/injection, schedule: Q01DX011 (ip), vehicle: saline, higher = larger tumour) is 61 % of control; the T/C (endpoint: mean tumor weight, dose: 0.25 mg/kg/injection, schedule: Q01DX011 (ip), vehicle: saline, higher = larger tumour) is 46 % of control; the T/C (endpoint: median survival time, dose: 0.13 mg/kg/injection, schedule: Q01DX009 (ip), vehicle: saline, higher = longer survival) was 100 % of control; the T/C (endpoint: median survival time, dose: 0.25 mg/kg/injection, schedule: Q01DX009 (ip), vehicle: saline, higher = longer survival) was 98 % of control; the T/C (endpoint: median survival time, dose: 0.5 mg/kg/injection, schedule: Q01DX009 (ip), vehicle: saline, higher = longer survival) is 99 % of control. Moreover, the T/C by setting is: (endpoint: median survival time, dose: 63.0 micrograms/kg/injection, schedule: Q01DX009 (ip), vehicle: saline, higher = longer survival) 103 % of control; (endpoint: median survival time, dose: 125.0 micrograms/kg/injection, schedule: Q01DX009 (ip), vehicle: saline, higher = longer survival) 106 % of control; (endpoint: median survival time, dose: 250.0 micrograms/kg/injection, schedule: Q01DX009 (ip), vehicle: saline, higher = longer survival) 108 % of control; (endpoint: median survival time, dose: 500.0 micrograms/kg/injection, schedule: Q01DX009 (ip), vehicle: saline, higher = longer survival) 108 % of control; (endpoint: median survival time, dose: 1000.0 micrograms/kg/injection, schedule: Q01DX009 (ip), vehicle: saline, higher = longer survival) 91 % of control.
For the compound `CC(=O)N(C)C(C(=O)N1CC(C)CC1C(=O)N(C)C1C(=O)NC(CC(C)C)C(=O)N2CC(C)CC2C(=O)NC(CC(C)C)C(=O)N(C)C(C(C)C)C(=O)N2CCCC2C(=O)N(C)C(CC(C)C)C(=O)NCC(=O)OC1C)C(C)C` (stereo unspecified), the T/C was 94 % of control (endpoint: median survival time, dose: 9.4 mg/kg/injection, schedule: Q01DX009 (ip), vehicle: Klucel (hydroxypropylcellulose) (HPC), higher = longer survival); 98 % of control (endpoint: median survival time, dose: 18.75 mg/kg/injection, schedule: Q01DX009 (ip), vehicle: Klucel (hydroxypropylcellulose) (HPC), higher = longer survival); 96 % of control (endpoint: median survival time, dose: 37.5 mg/kg/injection, schedule: Q01DX009 (ip), vehicle: Klucel (hydroxypropylcellulose) (HPC), higher = longer survival).
For the compound `CC1OC(Oc2c(-c3cc(O)c(O)c(O)c3)oc3cc(O)cc(O)c3c2=O)C(O)C(O)C1O` (stereo unspecified), the T/C reads like this: (endpoint: mean tumor weight, dose: 100.0 mg/kg/injection, schedule: Q01DX011 (ip), vehicle: carboxymethylcellulose (CMC), higher = larger tumour) 59 % of control; (endpoint: mean tumor weight, dose: 200.0 mg/kg/injection, schedule: Q01DX011 (ip), vehicle: carboxymethylcellulose (CMC), higher = larger tumour) 49 % of control; (endpoint: mean tumor weight, dose: 400.0 mg/kg/injection, schedule: Q01DX011 (ip), vehicle: carboxymethylcellulose (CMC), higher = larger tumour) 50 % of control.
Regarding `Nc1nc(N)c2nc(CN(CCO)c3ccc(C(=O)NC(CCC(=O)O)C(=O)O)cc3)cnc2n1` (stereo unspecified), the T/C is 96 % of control (endpoint: median survival time, dose: 0.25 mg/kg/injection, schedule: Q01DX009 (ip), vehicle: Klucel (hydroxypropylcellulose) (HPC), higher = longer survival); 107 % of control (endpoint: median survival time, dose: 0.5 mg/kg/injection, schedule: Q01DX009 (ip), vehicle: Klucel (hydroxypropylcellulose) (HPC), higher = longer survival); 108 % of control under setting [1]; 89 % of control under setting [2].
For `NCCCNCCSP(=O)(O)O`, the T/C runs as follows: (endpoint: median survival time, dose: 300.0 mg/kg/injection, schedule: Q01DX001 (ip), vehicle: saline, higher = longer survival) 93 % of control and 100 % of control; (endpoint: median survival time, dose: 500.0 mg/kg/injection, schedule: Q01DX001 (ip), vehicle: saline, higher = longer survival) 77 % of control and 78 % of control.
For `CC(C)=CCC(OC(=O)C=C(C)C)C1=CC(=O)c2c(O)ccc(O)c2C1=O` (stereo unspecified), the T/C by setting is: (endpoint: median survival time, dose: 6.25 mg/kg/injection, schedule: Q01DX009 (ip), vehicle: Klucel (hydroxypropylcellulose) (HPC), higher = longer survival) 104 % of control; (endpoint: median survival time, dose: 12.5 mg/kg/injection, schedule: Q01DX009 (ip), vehicle: Klucel (hydroxypropylcellulose) (HPC), higher = longer survival) 88 % of control; (endpoint: median survival time, dose: 25.0 mg/kg/injection, schedule: Q01DX009 (ip), vehicle: Klucel (hydroxypropylcellulose) (HPC), higher = longer survival) 118 % of control.
As for `CS(=O)(=O)OCC#CCOS(C)(=O)=O`, the T/C reads like this: (endpoint: mean tumor weight, dose: 16.0 mg/kg/injection, schedule: Q01DX011 (ip), vehicle: saline, higher = larger tumour) 91 % of control; (endpoint: mean tumor weight, dose: 32.0 mg/kg/injection, schedule: Q01DX011 (ip), vehicle: saline, higher = larger tumour) 63 % of control.
As to `CC(C)NCC(O)COc1cccc2ccccc12` (stereo unspecified), the T/C by setting is: under setting [2], 95 % of control and 110 % of control; (endpoint: median survival time, dose: 2.0 mg/kg/injection, schedule: Q02DX009 (ip), vehicle: Klucel (hydroxypropylcellulose) (HPC), higher = longer survival) 123 % of control; (endpoint: median survival time, dose: 4.0 mg/kg/injection, schedule: Q02DX009 (ip), vehicle: Klucel (hydroxypropylcellulose) (HPC), higher = longer survival) 95 % of control and 107 % of control; (endpoint: median survival time, dose: 8.0 mg/kg/injection, schedule: Q02DX009 (ip), vehicle: Klucel (hydroxypropylcellulose) (HPC), higher = longer survival) 100 % of control and 108 % of control; (endpoint: median survival time, dose: 16.0 mg/kg/injection, schedule: Q02DX009 (ip), vehicle: Klucel (hydroxypropylcellulose) (HPC), higher = longer survival) 92 % of control and 111 % of control; (endpoint: median survival time, dose: 32.0 mg/kg/injection, schedule: Q02DX009 (ip), vehicle: Klucel (hydroxypropylcellulose) (HPC), higher = longer survival) 90 % of control and 105 % of control. For the same compound, the T/C (endpoint: median survival time, dose: 64.0 mg/kg/injection, schedule: Q02DX009 (ip), vehicle: Klucel (hydroxypropylcellulose) (HPC), higher = longer survival) is 101 % of control and 118 % of control.
With `CCCCS(=O)CC(CO)NC(=O)/C=C/c1c(C)[nH]c(=O)[nH]c1=O` (stereo unspecified), the T/C was 101 % of control (endpoint: median survival time, dose: 0.63 mg/kg/injection, schedule: Q01DX009 (ip), vehicle: water, higher = longer survival); 113 % of control (endpoint: median survival time, dose: 2.5 mg/kg/injection, schedule: Q01DX009 (ip), vehicle: water, higher = longer survival); 89 % of control (endpoint: median survival time, dose: 5.0 mg/kg/injection, schedule: Q01DX009 (ip), vehicle: water, higher = longer survival).
In the case of `O=C(O)CCCc1ccc(N(CCCl)CCCl)cc1`, the T/C is, setting by setting: (endpoint: mean tumor weight, dose: 3.13 mg/kg/injection, schedule: Q01DX011 (ip), vehicle: saline, higher = larger tumour) 66 % of control; (endpoint: mean tumor weight, dose: 6.25 mg/kg/injection, schedule: Q01DX011 (ip), vehicle: saline, higher = larger tumour) 54 % of control; (endpoint: mean tumor weight, dose: 7.5 mg/kg/injection, schedule: Q01DX011 (ip), vehicle: carboxymethylcellulose (CMC), higher = larger tumour) 55 % of control; (endpoint: mean tumor weight, dose: 12.5 mg/kg/injection, schedule: Q01DX011 (ip), vehicle: saline, higher = larger tumour) 26 % of control; (endpoint: median survival time, dose: 1.0 mg/kg/injection, schedule: Q01DX009 (ip), vehicle: saline with Tween-80, higher = longer survival) 113 % of control; (endpoint: median survival time, dose: 2.0 mg/kg/injection, schedule: Q01DX009 (ip), vehicle: saline with Tween-80, higher = longer survival) 101 % of control and 124 % of control. Besides, the T/C is, setting by setting: (endpoint: median survival time, dose: 4.0 mg/kg/injection, schedule: Q01DX001 (ip), vehicle: saline with Tween-80, higher = longer survival) 94 % of control; (endpoint: median survival time, dose: 8.0 mg/kg/injection, schedule: Q01DX001 (ip), vehicle: saline with Tween-80, higher = longer survival) 112 % of control; (endpoint: median survival time, dose: 8.0 mg/kg/injection, schedule: Q01DX009 (ip), vehicle: saline with Tween-80, higher = longer survival) 110 % of control and 114 % of control; (endpoint: median survival time, dose: 16.0 mg/kg/injection, schedule: Q01DX001 (ip), vehicle: saline with Tween-80, higher = longer survival) 107 % of control; (endpoint: median survival time, dose: 32.0 mg/kg/injection, schedule: Q01DX001 (ip), vehicle: saline with Tween-80, higher = longer survival) 89 % of control.
As for `O=NN(CCCl)C(=O)NC1CCC(O)CC1` (stereo unspecified), the T/C is, setting by setting: (endpoint: median survival time, dose: 10.0 mg/kg/injection, schedule: Q01DX001 (ip), vehicle: Klucel (hydroxypropylcellulose) (HPC), higher = longer survival) 104 % of control; (endpoint: median survival time, dose: 10.0 mg/kg/injection, schedule: Q01DX001 (ip), vehicle: other, higher = longer survival) 112 % of control and 119 % of control; (endpoint: median survival time, dose: 20.0 mg/kg/injection, schedule: Q01DX001 (ip), vehicle: Klucel (hydroxypropylcellulose) (HPC), higher = longer survival) 105 % of control; (endpoint: median survival time, dose: 20.0 mg/kg/injection, schedule: Q01DX001 (ip), vehicle: other, higher = longer survival) 105 % of control; (endpoint: median survival time, dose: 40.0 mg/kg/injection, schedule: Q01DX001 (ip), vehicle: Klucel (hydroxypropylcellulose) (HPC), higher = longer survival) 186 % of control; (endpoint: median survival time, dose: 40.0 mg/kg/injection, schedule: Q01DX001 (ip), vehicle: other, higher = longer survival) 202 % of control. Further, the T/C (endpoint: median survival time, dose: 80.0 mg/kg/injection, schedule: Q01DX001 (ip), vehicle: Klucel (hydroxypropylcellulose) (HPC), higher = longer survival) is 108 % of control.
With `C1CC[N-]CC1.C1CC[N-]CC1.C1CC[N-]CC1.C1CC[N-]CC1.[Cl][Co][Cl]`, the T/C is 63 % of control (endpoint: mean tumor weight, dose: 15.0 mg/kg/injection, schedule: Q01DX011 (ip), vehicle: other, higher = larger tumour); 68 % of control (endpoint: mean tumor weight, dose: 30.0 mg/kg/injection, schedule: Q01DX011 (ip), vehicle: other, higher = larger tumour); 56 % of control (endpoint: mean tumor weight, dose: 60.0 mg/kg/injection, schedule: Q01DX011 (ip), vehicle: other, higher = larger tumour); 94 % of control (endpoint: median survival time, dose: 2.5 mg/kg/injection, schedule: Q01DX009 (ip), vehicle: saline, higher = longer survival); 105 % of control (endpoint: median survival time, dose: 10.0 mg/kg/injection, schedule: Q01DX009 (ip), vehicle: saline, higher = longer survival); 95 % of control (endpoint: median survival time, dose: 20.0 mg/kg/injection, schedule: Q01DX009 (ip), vehicle: saline, higher = longer survival). Moreover, the T/C (endpoint: median survival time, dose: 40.0 mg/kg/injection, schedule: Q01DX009 (ip), vehicle: saline, higher = longer survival) was 93 % of control.
Turning to `COc1cccc(/C=N/NC(=O)c2ccccc2N2CCCC2)c1O`, the T/C (endpoint: median survival time, dose: 100.0 mg/kg/injection, schedule: Q01DX009 (ip), vehicle: olive oil, sesame oil, peanut oil, higher = longer survival) was 90 % of control.
Take `C[n+]1ccc(Nc2ccc(NC(=O)c3ccc(Nc4cc[n+](C)c5ccc(N)cc45)cc3)cc2)cc1`: the T/C runs as follows: under setting [1], 167 % of control; (endpoint: median survival time, dose: 8.0 mg/kg/injection, schedule: Q01DX009 (ip), vehicle: Klucel (hydroxypropylcellulose) (HPC), higher = longer survival) 244 % of control.
